Laboratory results taken from US20260022098A1, “BULLEYACONITINE A DERIVATIVE WITH ANALGESIC ACTIVITY, AND PREPARATION METHOD AND APPLICATION THEREOF” (priority 2023, published 2026).

Legend:
Kunming mice [1] = test: Acute toxicity / median lethal dose (LD50) determination, subcutaneous injection; format: in vivo; design: key to Acute toxicity: if death occurred, (+) represented as positive; if no death occurred, (−) represented as negative; conditions: mice administered 20 mg/kg subcutaneously, presence of death within 24 h
Protocol: (§1) The experimental animals were Kunming mice (male:female=1:1), weighed 22+2 g, which were provided by Chengdu dossy experimental animals Co., ltd., China. The mice were kept in the animal room of the School of Life Science and Engineering, Southwest Jiaotong University, where the animal room was set at a temperature of 23±2° C., a humidity of […] and a photoperiod of 16:8 h (L:D). Before the experiment, the mice were freely fed for 2-3 days with water and feed to adapt to the new environment. Then, the mice were treated by water and food fasting for 12 h. 10 animals were allocated to each group to ensure that there are at least 6 sets of valid data in each group. The animal experiments were carried out in strict accordance with the national regulations on the management of experimental animals.
(§2) The compounds prepared in the examples provided herein (test sample set) and bulleyaconitine A (positive control set) were all dissolved with 0.1 mol/L HCl according to a molar ratio of 1:1, and then diluted with physiological saline to a concentration to be determined. Blank control was physiological saline containing 0.1 mol/L HCl. The animals in the control groups were subjected to the same treatment as those in experimental groups except that samples to be test were replaced with physiological saline.
(2) Median Lethal Dose (LD50) Determination
The sample to be tested was dissolved with 0.1 mol/L HCl according to the amount of the substance ratio of 1:1, and diluted with physiological saline according to the required concentration. 10 mice in each group were randomly selected, half of which were male and half of which were female, and were placed in independent cages. Each mouse was injected subcutaneously with different sample solutions to be tested according to a dose of 0.1 mL/10 g body weight. In the preliminary toxicity experiment, the measured concentration was 20 mg/kg, and then based on the survival rate of the experimental animals in the preliminary experiment, the sample to be tested was set to at least 5 groups with different concentration dose according to the proportional series. The survival rate of mice within 24 h was recorded. The obtained dose-survival rate data was input into the SPSS software (version 17.2), and the LD50 of the sample was calculated according to the Probit regression method.

Kunming mice [2] = test: Analgesic activity by acetic acid-induced writhing method (writhing inhibition rate, ED50); format: in vivo; conditions: Mus musculus, sc, read-out: Analgesia rate (%) ± SEM
Protocol: as §1, §2
(1) Determination of Analgesic Activity Through an Acetic Acid-Induced Writhing Method
10 mice were randomly selected, male:female=1:1, were placed in independent cages. Each mouse was injected subcutaneously with the sample solution mentioned above at a dose of 0.1 mL/10 g body weight. After 15 min, a 0.7% acetic acid solution was intraperitoneally injected. A number of writhing reactions in each mouse within 15 minutes was recorded. The group that the mice were injected with physiological saline subcutaneously was the blank group; the group that the mice were injected with the sample to be tested was the experimental group; and the group that the mice were injected with bulleyaconitine A was the positive group. The analgesic activity was represented by a percentage of the reduced number of writhing compared to the blank group (writhing inhibition rate), which were specifically as follows: writhing inhibition rate (analgesic activity)=(average number of writhing times in the blank group-average number of writhing times in the experimental group)/average number of writhing times in the blank group×100%.
Median Effective Dose (ED50) Determination
The sample to be tested was dissolved with 0.1 mol/L HCl according to the amount of the substance ratio of 1:1, and diluted with physiological saline according to the proportional series to obtain at least 5 groups with different dose concentrations. The writhing inhibition rate of each dose group was tested according to the acetic acid-induced writhing method mentioned above. The obtained dose-writhing inhibition data was entered into the statistical product and service solutions (SPSS) software (version 17.2), and the ED50 of the sample to be tested was calculated through the Probit regression method.

| SMILES | Acute toxicity (Kunming mice [1]) | inhibition in vivo at 0.05 mg/kg (Kunming mice [2]) |
| --- | --- | --- |
| CCN1C[C@]2(COC)CC[C@H](OC)[C@@]34C5C[C@]6(OC(C)=O)[C@@H](OC)C[C@@](OC(C)=O)(C5[C@H]6OC(=O)c5ccc(OC)cc5)C([C@H](OC)C23)[C@@H]14 (stereo partly drawn) [Compound 43] | − | 4.92 ± 1.5% |
| CCN1C[C@]2(COC)CC[C@H](OC)[C@@]34C5C[C@]6(OC(C)=O)[C@@H](OC)C[C@@](OC)(C5[C@H]6OC(C)=O)C([C@H](OC)C23)[C@@H]14 (stereo partly drawn) [Compound 44] | − | 5.82 ± 3.4% |
| CCN1C[C@]2(COC)CC[C@H](OC)[C@@]34C5C[C@]6(OC(C)=O)[C@@H](OC)C[C@@](OC)(C5[C@H]6OC(=O)c5ccc(OC)cc5)C([C@H](OC)C23)[C@@H]14 (stereo partly drawn) [Compound 45] | − | 21.6 ± 1.3% |
| CCO[C@]12C[C@H](OC)[C@@]3(OC(=O)c4ccc(C(F)(F)F)cc4)CC(C1[C@H]3OC(=O)c1ccc(C(F)(F)F)cc1)[C@]13C4[C@@H](OC)C2[C@H]1N(CC)C[C@]4(COC)CC[C@@H]3OC (stereo partly drawn) [Compound 46] | − | 16.7 ± 2.6% |
| CCO[C@]12C[C@H](OC)[C@@]3(OC(=O)c4ccc(C(F)(F)F)cc4)CC(C1[C@H]3OC(=O)c1ccc(OC)cc1)[C@]13C4[C@@H](OC)C2[C@H]1N(CC)C[C@]4(COC)CC[C@@H]3OC (stereo partly drawn) [Compound 47] | − | 33.8 ± 2.2% |
| CCN1C[C@]2(COC)CC[C@H](OC)[C@@]34C5C[C@]6(OC(=O)c7ccc(C(F)(F)F)cc7)[C@@H](OC)C[C@@](OC(C)=O)(C5[C@H]6OC(=O)c5ccc(OC)cc5)C([C@H](OC)C23)[C@@H]14 (stereo partly drawn) [Compound 48] | − | 17.5 ± 3% |
| CCO[C@]12C[C@H](OC)[C@@]3(OC(=O)c4ccncc4)CC(C1[C@H]3OC(=O)c1ccncc1)[C@]13C4[C@@H](OC)C2[C@H]1N(CC)C[C@]4(COC)CC[C@@H]3OC (stereo partly drawn) [Compound 49] | − | 13.7 ± 1% |
| CCO[C@]12C[C@H](OC)[C@@]3(OC(=O)c4ccncc4)CC(C1[C@H]3OC(=O)c1ccc(OC)cc1)[C@]13C4[C@@H](OC)C2[C@H]1N(CC)C[C@]4(COC)CC[C@@H]3OC (stereo partly drawn) [Compound 50] | − | 33.2 ± 1.4% |
| CCN1C[C@]2(COC)CC[C@H](OC)[C@@]34C5C[C@]6(OC(=O)c7ccncc7)[C@@H](OC)C[C@@](OC(C)=O)(C5[C@H]6OC(=O)c5ccc(OC)cc5)C([C@H](OC)C23)[C@@H]14 (stereo partly drawn) [Compound 51] | − | 32.6 ± 1.7% |
| CCO[C@]12C[C@H](OC)[C@@]3(OC(=O)c4ccccc4)CC(C1[C@H]3OC(=O)c1ccc(OC)cc1)[C@]13C4[C@@H](OC)C2[C@H]1N(CC)C[C@]4(COC)CC[C@@H]3OC (stereo partly drawn) [Compound 53] | − | 0% |
| CCN1C[C@]2(COC)CC[C@H](OC)[C@@]34C5C[C@]6(OC(=O)c7ccccc7)[C@@H](OC)C[C@@](OC(C)=O)(C5[C@H]6OC(=O)c5ccc(OC)cc5)C([C@H](OC)C23)[C@@H]14 (stereo partly drawn) [Compound 54] | − | 0% |
| CCN1C[C@]2(COC)CC[C@H](OC)[C@@]34C5C[C@]6(OC(=O)c7ccccc7)[C@@H](OC)C[C@@](OC)(C5[C@H]6OC(=O)c5ccccc5)C([C@H](OC)C23)[C@@H]14 (stereo partly drawn) [Compound 55] | − | 11.7 ± 1.6% |
| CCO[C@]12C[C@H](OC)[C@@]3(OC(=O)c4ccc(C)cc4)CC(C1[C@H]3OC(=O)c1ccc(C)cc1)[C@]13C4[C@@H](OC)C2[C@H]1N(CC)C[C@]4(COC)CC[C@@H]3OC (stereo partly drawn) [Compound 56] | − | 11.4 ± 2% |
| CCO[C@]12C[C@H](OC)[C@@]3(OC(=O)c4ccc(C)cc4)CC(C1[C@H]3OC(=O)c1ccc(OC)cc1)[C@]13C4[C@@H](OC)C2[C@H]1N(CC)C[C@]4(COC)CC[C@@H]3OC (stereo partly drawn) [Compound 57] | − | 5.39 ± 2% |
| CCN1C[C@]2(COC)CC[C@H](OC)[C@@]34C5C[C@]6(OC(=O)c7ccc(C)cc7)[C@@H](OC)C[C@@](OC(C)=O)(C5[C@H]6OC(=O)c5ccc(OC)cc5)C([C@H](OC)C23)[C@@H]14 (stereo partly drawn) [Compound 58] | − | 28.8 ± 1.8% |
| CCN1C[C@]2(COC)CC[C@H](OC)[C@@]34C5C[C@]6(OC(=O)c7ccc(F)cc7)[C@@H](OC)C[C@@](OC(C)=O)(C5[C@H]6OC(=O)c5ccc(OC)cc5)C([C@H](OC)C23)[C@@H]14 (stereo partly drawn) [Compound 61] | − | 34 ± 1.9% |
| CCO[C@]12C[C@H](OC)[C@@]3(OC(=O)c4cccc(C)c4)CC(C1[C@H]3OC(=O)c1cccc(C)c1)[C@]13C4[C@@H](OC)C2[C@H]1N(CC)C[C@]4(COC)CC[C@@H]3OC (stereo partly drawn) [Compound 62] | − | 15 ± 2.4% |
| CCO[C@]12C[C@H](OC)[C@@]3(OC(=O)c4ccc(CC)cc4)CC(C1[C@H]3OC(=O)c1ccc(CC)cc1)[C@]13C4[C@@H](OC)C2[C@H]1N(CC)C[C@]4(COC)CC[C@@H]3OC (stereo partly drawn) [Compound 63] | − | 0% |
| CCO[C@]12C[C@H](OC)[C@@]3(OC(=O)c4ccc(Br)cc4)CC(C1[C@H]3OC(=O)c1ccc(Br)cc1)[C@]13C4[C@@H](OC)C2[C@H]1N(CC)C[C@]4(COC)CC[C@@H]3OC (stereo partly drawn) [Compound 64] | − | 22.4 ± 1.4% |
| CCO[C@]12C[C@H](OC)[C@@]3(OC(=O)c4ccc(Cl)cc4)CC(C1[C@H]3OC(=O)c1ccc(Cl)cc1)[C@]13C4[C@@H](OC)C2[C@H]1N(CC)C[C@]4(COC)CC[C@@H]3OC (stereo partly drawn) [Compound 65] | − | 32.3 ± 1.7% |
| CCO[C@]12C[C@H](OC)[C@@]3(OC(=O)c4ccccc4OC)CC(C1[C@H]3OC(=O)c1ccccc1OC)[C@]13C4[C@@H](OC)C2[C@H]1N(CC)C[C@]4(COC)CC[C@@H]3OC (stereo partly drawn) [Compound 66] | − | 22.9 ± 2.4% |
| CCO[C@]12C[C@H](OC)[C@@]3(OC(=O)c4ccccc4Br)CC(C1[C@H]3OC(=O)c1ccccc1Br)[C@]13C4[C@@H](OC)C2[C@H]1N(CC)C[C@]4(COC)CC[C@@H]3OC (stereo partly drawn) [Compound 67] | − | 17.8 ± 1.9% |
| CCO[C@]12C[C@H](OC)[C@@]3(OC(=O)c4ccccc4Cl)CC(C1[C@H]3OC(=O)c1ccccc1Cl)[C@]13C4[C@@H](OC)C2[C@H]1N(CC)C[C@]4(COC)CC[C@@H]3OC (stereo partly drawn) [Compound 68] | − | 24.6 ± 1.7% |
| CCO[C@]12C[C@H](OC)[C@@]3(OC(=O)c4cccc(Br)c4)CC(C1[C@H]3OC(=O)c1cccc(Br)c1)[C@]13C4[C@@H](OC)C2[C@H]1N(CC)C[C@]4(COC)CC[C@@H]3OC (stereo partly drawn) [Compound 70] | − | 5.83 ± 1.7% |
| CCO[C@]12C[C@H](OC)[C@@]3(OC(=O)c4cccc(Cl)c4)CC(C1[C@H]3OC(=O)c1cccc(Cl)c1)[C@]13C4[C@@H](OC)C2[C@H]1N(CC)C[C@]4(COC)CC[C@@H]3OC (stereo partly drawn) [Compound 71] | − | 4.11 ± 2% |
| CCO[C@]12C[C@H](OC)[C@@]3(OC(=O)c4cccc(F)c4)CC(C1[C@H]3OC(=O)c1cccc(F)c1)[C@]13C4[C@@H](OC)C2[C@H]1N(CC)C[C@]4(COC)CC[C@@H]3OC (stereo partly drawn) [Compound 72] | − | 24.7 ± 2% |
| CCO[C@]12C[C@H](OC)[C@@]3(OC(=O)c4ccc(Cl)cc4Cl)CC(C1[C@H]3OC(=O)c1ccc(Cl)cc1Cl)[C@]13C4[C@@H](OC)C2[C@H]1N(CC)C[C@]4(COC)CC[C@@H]3OC (stereo partly drawn) [Compound 73] | − | 33.5 ± 2.7% |
